Laboratory results: EP2878677A1, “Activators of protein phosphatase 5” (Deutsches Zentrum für Neurodegenerative Erkrankungen e.V. …, priority 2013, dated 2015)

Key:
[1] = system: human tau-P301L-transfected mice brains; experiment: human tau-P301L-transfected mice treated via mini-osmotic pumps, immunohistochemistry of the hippocampus; type: in vivo, C57BL/6 mice
Method: All protocols for animal experiments described in this study were performed according to the German laws for animal experimentation (Tierschutzgesetz) from 1998. The study was approved by the authorities of the State of Saxony-Anhalt (Landesverwaltungsamt) and performed according to institutional guidelines. Animals were maintained under constant environmental conditions with ambient temperature of 20 ± 2 °C and relative humidity of 50%. They were housed with a 12 hour light-dark cycle and given food and water ad libitum. Adult wild-type C57BL/6 mice (10 weeks old) obtained from Charles River Laboratories (Sulzfeld, Germany) were used for all studies. 4% halothane in a mixture of nitrous oxide/oxygen (ratio 70:30) was used for the induction of anesthesia and 1 to 1.5% halothane for the maintenance of anesthesia. Halothane was applied via a nose cone. Throughout all surgical procedures, the animal's body temperature was kept at 37°C using a thermostatically controlled heating blanket. Intracerebral injection of viral particles into the hippocampus of the right brain hemisphere of anesthetized mice was performed stereotactically at coordinates 2.6 mm posterior to bregma, lateral 1.0 mm and ventral 2.0 mm. 2 µl of high titer viral suspension were injected with a fixed syringe (Hamilton Company, Reno, NV, USA). After injection at a rate of 0.2 µl/min, the cannula was left in place for further 30 sec before slow withdrawal. After surgery, the wound was sutured.
Mini-osmotic pumps (Model 2006, Alzet, Palo Alto, CA, USA) were implanted intraperitoneal (ip) through a midline incision immediately after P301L transfection. During implantation, animals remained under halothane anesthesia (details above). The pumps (internal volume: 245.6 µl) were loaded with one of the following substances: P5SA-2, P5SA-3, P5SA-4, P5SA-5 or corresponding vehicle solution (DMSO/polyethylene glycol 400 (50:50 w/w) without drug. P5SA (final concentration 1 mg/kg/day) or vehicle infusion (ip) started immediately after transplantation with a continuous flow rate of 0.15 µl/h and was maintained for 6 weeks.
6 weeks after P301L transfection, mice were anesthetized by ip injection of 4% chloral hydrate in PBS, transcardially perfused with ice-cold PBS and fixed with 4% paraformaldehyde in 0.1 M PBS. Immediately after fixation, animals were decapitated. The brains were removed and post-fixed in the same fixative overnight. Fixed brains were placed in a mouse brain matrix (Activational Systems Inc., Warren, USA) and transected into defined coronal brain slices (thickness 1 mm) along the anterior-posterior axis. After incubation in 30% sucrose containing PBS for cryoprotection, 20 µm-thick frontal sections, comprising the hippocampal formation, were cut using a cryostat (Microm International GmbH, Walldorf, Germany). For immunohistochemical staining, sections were washed in 0.1 M PBS. Free-floating sections were permeabilized with 0.2% Triton X-100 in PBS containing 10% normal horse serum for 30 min. After washing with PBS, unspecific antibody binding was blocked by 10% normal horse serum for 30 min, followed by a further wash in 0.1 M PBS. Then, sections were incubated with primary antibodies. For immunofluorescence staining, primary antibodies directed against total tau (human plus endogenous mice tau, K9JA) and MAP2 (microtubule-associated protein 2), respectively, were applied simultaneously. Alternatively, the primary antibodies AT8 (human phospho-tau, AT8 (Ser202/Thr205) phosphorylation site) and the human tau-specific primary antibody tau-13 were used individually. After overnight incubation at 4°C, sections were rinsed with 0.1 M PBS. Sections exposed to the primary antibody combination K9JA/MAP2 were incubated with the complementary secondary antibodies goat anti-rabbit IgG Alexa Fluor 488 and goat anti-mouse IgG Alexa Fluor 594. AT8 and tau-13 were visualized with goat anti-mouse IgG Alexa Fluor 594. […]

[2] = target: T1, Hsc70/HSP-1 (Caenorhabditis elegans, UniProt P09446); experiment: coupled regenerative ATPase assay; type: biochemical, C. elegans; details: concentrations well above the KD; also with BAG-1 and DNJ-13; 30 °C
T1 construct: made in house; host or cells: bacteria
Method: (§1) ATPase activity can be measured as described in Gaiser et al., 2009 with an ATPase assay that is carried out as a regenerative assay, wherein ADP produced during the ATPase reaction is recycled to ATP with the help of lactate dehydrogenase, NADH, phosphoenolpyruvate and pyruvate kinase. This changes the absorbance at 340 nm, when NADH is oxidized to NAD^+, giving a sensitive signal for the determination of activity. The change in absorbance at 340 nm that occurs during oxidizing of NADH to NAD^+ is measured by spectroscopic measures. Preferably, said in vitro ATPase assay is carried out at 30 °C. Preferably, said in vitro ATPase assay is carried out in the presence of 3 µM or the chaperone protein. Preferably the concentration of each of the cochaperones present is 5 µM. Preferably, the chaperones and cochaperones used are bacterially expressed proteins.
(§2) The activity of the ATPases Hsc70/HSP-1 and Hsp90/DAF-21 were assessed in a coupled regenerative ATPase assay as described before (Gaiser et al., 2009). Reactions were measured in a Varian Cary 100 spectrophotometer (Agilent Technologies, Boeblingen, Germany) at 30 °C and the depletion of NADH was followed at 340 nm. Chaperone concentration was 3 µM and cochaperones were added, when indicated, at a concentration of 5 µM.

[3] = target: T2, Hsp90/DAF-21 (Caenorhabditis elegans, UniProt Q18688); experiment: coupled regenerative ATPase assay; type: biochemical, C. elegans; details: concentrations well above the KD; also with AHA-1; 30 °C
T2 construct: made in house
Method: as §1, §2

[4] = 1 mg/kg/day, continuous ip infusion for 6 weeks

T1 sequence (P09446 whole entry): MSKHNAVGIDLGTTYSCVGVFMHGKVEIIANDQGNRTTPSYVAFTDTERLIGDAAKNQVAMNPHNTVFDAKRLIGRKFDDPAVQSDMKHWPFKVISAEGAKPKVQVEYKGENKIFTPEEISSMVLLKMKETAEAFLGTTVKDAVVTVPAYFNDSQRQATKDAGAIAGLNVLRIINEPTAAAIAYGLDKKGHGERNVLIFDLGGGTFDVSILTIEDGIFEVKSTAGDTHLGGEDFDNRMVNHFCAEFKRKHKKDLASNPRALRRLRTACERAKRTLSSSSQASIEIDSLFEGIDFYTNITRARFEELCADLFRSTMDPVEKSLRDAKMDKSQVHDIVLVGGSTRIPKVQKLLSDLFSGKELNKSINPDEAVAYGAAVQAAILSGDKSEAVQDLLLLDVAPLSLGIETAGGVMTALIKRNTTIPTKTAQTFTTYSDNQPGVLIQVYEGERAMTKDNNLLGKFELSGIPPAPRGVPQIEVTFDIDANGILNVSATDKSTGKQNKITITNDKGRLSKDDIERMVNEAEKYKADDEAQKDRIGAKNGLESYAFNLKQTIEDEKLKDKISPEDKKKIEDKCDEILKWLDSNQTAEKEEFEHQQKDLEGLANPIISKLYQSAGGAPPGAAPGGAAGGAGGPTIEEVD

COc1ccc(-c2nc(Cc3ccc(Cl)cc3)no2)cc1OC [P5SA-2]
phosphorylation of human tau-P301L at its AT8 epitope (Ser202/Thr205) [1, 4]: diminished
tau-P301L-dependent pattern of neuronal degeneration in the hippocampal formation [1, 4]: not observed
ATPase activity of Hsc70/HSP-1 [2]: no additional effect
ATPase activity of Hsp90/DAF-21 [3]: no effect

CN1CCc2c(sc(-n3cccc3)c2CNC(=O)NC23CC4CC(CC(C4)C2)C3)C1 [P5SA-3]
phosphorylation of human tau-P301L at its AT8 epitope (Ser202/Thr205) [1, 4]: diminished
tau-P301L-dependent pattern of neuronal degeneration in the hippocampal formation [1, 4]: not observed

FC(F)(F)c1c2c(nc3c(-c4ccc(Cl)cc4)cnn13)CCC2 [P5SA-1]
ATPase activity of Hsc70/HSP-1 [2]: no additional effect
ATPase activity of Hsp90/DAF-21 [3]: no effect

CNC(=O)c1c(NC(=O)COCC(=O)Nc2sc3c(c2C(=O)NC)CCC3)sc2c1CCC2 [P5SA-5]
numbers of AT8-positive perikarya of CA3 pyramidal neurons per hippocampal slice ([1]; 1 mg/kg/day ip for 6 weeks, mean ± SEM, vehicle 7.0 ± 2.0, P< 0.0001): 2.2 ± 1.4
phosphorylation of human tau-P301L at its AT8 epitope (Ser202/Thr205) [1, 4]: remarkably reduced
tau-P301L-dependent localization of total tau signals in the perikarya of CA1 and CA3 pyramidal neurons [1, 4]: remained unaffected
tau-P301L-dependent pattern of neuronal degeneration in the hippocampal formation [1, 4]: decreased
ATPase activity of Hsc70/HSP-1 [2]: no additional effect
ATPase activity of Hsp90/DAF-21 [3]: no effect

O=c1cc2nc(-c3ccc(F)cc3)nc(SCc3ccc(Br)cc3)n2[nH]1 [P5SA-4]
phosphorylation of human tau-P301L at its AT8 epitope (Ser202/Thr205) [1, 4]: diminished
tau-P301L-dependent pattern of neuronal degeneration in the hippocampal formation [1, 4]: not observed
ATPase activity of Hsc70/HSP-1 [2]: no additional effect
ATPase activity of Hsp90/DAF-21 [3]: no effect
